According to article PMC10820527, “Synthesis, Characterization, and Investigation of Anti-Inflammatory and Cytotoxic Activities of Novel Thiourea Derivatives of Naproxen” (Pharmaceutics, 2023):

Experiments:
HCT 116 = assay: MTT cytotoxicity assay, HCT 116; assay type: cell-based, human; details: for IC50: Homo sapiens, mean ± SD
Procedure: (§1) Three cancer cell lines (MDA-MB-231, HCT116 and HeLa; i.e., human breast cancer cells, human colorectal cancer cells, and human cervical cancer cells, respectively), and one non-malignant fibroblast MRC-5 cell line (control) were used in this study. The American Type Cell Collection (ATCC, Manassas, VA, USA) provided all examined cell lines. The cells were grown in a complete medium made up of high-glucose DMEM media supplemented with 10% fetal bovine serum and […] L-glutamine (both from Sigma-Aldrich, USA). The cells were cultured in 25 cc flasks (Thermo Fischer Scientific, Waltham, MA, USA) at 37 °C with 100% humidity in a 5% CO2 atmosphere.
(§2) The MTT test was used to assess the cytotoxicity of compounds 1–14 [44]. The cytotoxicity of naproxen was also investigated due to its clinical use and structural similarity. Throughout the exponential development period, cells were taken from culture flasks and counted, and 5 × 10^3 cells/well were planted into 96-well culture plates. Following that, the cell lines were treated with varying doses of the investigated chemicals (1–14), naproxen ([…]), and fresh complete media as a control. All evaluated cells were incubated for 24, 48, and 72 h at 37 °C in an environment containing 5% CO2 and 100% humidity. Following incubation, each well’s culture media was taken out, each well received an addition of MTT solution at a final concentration of 0.5 mg/mL, and the cells were left to incubate for an additional four hours. The MTT solution was then withdrawn carefully, and the formazan crystals were dissolved in DMSO. After shaking the plates for 10 min, absorbance at 595 nm was measured using a multiplate reader (Zenyth 3100, Anthos Labtec Instruments, Salzburg, Austria). All concentrations of the tested compounds were performed in three separate wells of the microtiter plates and in three separate experiments. The results were reported as a ratio to the control value, untreated cells. IC50 values were also determined using Microsoft Office Excel 2021. The percentage of viable cells was estimated by dividing the readout absorbance value in the wells containing treated cells by the average absorbance value measured in the wells containing untreated cells, and multiplying the result by 100 [44]. % of the viable cells = ((absorbance of treated cell-absorbance of blank)/(absorbance of untreated cell-absorbance of blank)) × 100(3)

[1] = test system: carrageenan-induced rat paw edema; assay: Carrageenan-induced rat paw edema model; assay type: in vivo; details: for Rat Paw Thickness: mean ± SD; for inhibition in vivo at 2.5 mg/kg / inhibition in vivo at 5 mg/kg / inhibition in vivo at 10 mg/kg: Rattus norvegicus
Procedure: The Carrageenan-induced rat paw edema model was used to assess the anti-inflammatory potential of novel compounds 8–14. Induction of inflammation was performed in all animals by intraplantar injection of […] 0.5% carrageenan saline into the left hind paw.
Animals (n = 200) were randomly divided into the following groups: control groups, that received either 1% DMSO or naproxen, and experimental groups, that received the novel compounds 8–14.
Control groups included DMSO and naproxen groups. Rats belonging to the DMSO group received 1% DMSO in the same volume as the compounds 8–14, 60 min before carrageenan injection. Moreover, naproxen groups included rats that were subjected to naproxen treatment in three doses: 2.5 mg/kg, 5 mg/kg, and 10 mg/kg. Naproxen was applied in the same manner as 1% DMSO.
Experimental groups included rats that were treated with compounds 8–14 and they were divided into three subgroups depending on the applied dose: 2.5 mg/kg, 5 mg/kg, and 10 mg/kg. The examined compounds were dissolved in 1% DMSO prior to treatment and applied to rats 60 min before inducing inflammation, i.e., before carrageenan injection. Doses of naproxen and investigated compounds were defined based on our previously published research.
In order to quantify the anti-inflammatory effects of the tested compounds, left paw thickness was measured at specific time points: prior to inflammation induction (moment 0) and 1, 2, 3, and 4 h (moments 1, 2, 3, and 4) following carrageenan injection. Tissue thickness was measured in the middle of the rat paw using a Digital Vernier caliper (Aerospace, China). The percentage of inhibition of paw edema after treatment with different agents was calculated according to the formula, Equation (2):% Inhibition = 100 × [1 − (Yt/Yc)](2) where Yt = average increase in paw thickness in the treated group of rats between two measurement moments, and Yc = average increase in paw thickness in the untreated group of rats between two measurement moments.

HeLa = assay: MTT cytotoxicity assay, HeLa; assay type: cell-based, human; details: for IC50: Homo sapiens, HeLa, mean ± SD
Procedure: as §1, §2

[2] = 2.5 mg/kg, 1 h after carrageenan
[3] = 2.5 mg/kg, 2 h after carrageenan
[4] = 2.5 mg/kg, 3 h after carrageenan
[5] = 2.5 mg/kg, 4 h after carrageenan
[6] = 5.0 mg/kg, 1 h after carrageenan
[7] = 5.0 mg/kg, 2 h after carrageenan
[8] = 5.0 mg/kg, 3 h after carrageenan
[9] = 5.0 mg/kg, 4 h after carrageenan
[10] = 10.0 mg/kg, 1 h after carrageenan
[11] = 10.0 mg/kg, 2 h after carrageenan
[12] = 10.0 mg/kg, 3 h after carrageenan
[13] = 10.0 mg/kg, 4 h after carrageenan

Row | Structure (SMILES) | IC50 (HCT 116; HCT-116, 24 h) [µM] | IC50 (HCT 116; HCT-116, 48 h) [µM] | IC50 (HCT 116; HCT-116, 72 h) [µM] | Rat Paw Thickness [1, 2] [mm] | Rat Paw Thickness [1, 3] [mm] | Rat Paw Thickness [1, 4] [mm] | Rat Paw Thickness [1, 5] [mm] | Rat Paw Thickness [1, 6] [mm] | Rat Paw Thickness [1, 7] [mm] | Rat Paw Thickness [1, 8] [mm] | Rat Paw Thickness [1, 9] [mm] | Rat Paw Thickness [1, 10] [mm] | Rat Paw Thickness [1, 11] [mm] | Rat Paw Thickness [1, 12] [mm] | Rat Paw Thickness [1, 13] [mm] | inhibition in vivo at 2.5 mg/kg ([1]; 2.5 mg/kg, 1 h) [%] | inhibition in vivo at 2.5 mg/kg ([1]; 2.5 mg/kg, 2 h) [%] | inhibition in vivo at 2.5 mg/kg ([1]; 2.5 mg/kg, 3 h) [%] | inhibition in vivo at 2.5 mg/kg ([1]; 2.5 mg/kg, 4 h) [%] | inhibition in vivo at 5 mg/kg ([1]; 5.0 mg/kg, 1 h) [%] | also measured
1 | COc1ccc2cc([C@H](C)C(=O)NC(=S)Nc3ccccc3OC)ccc2c1 [Compound 11, (S)-2-(6-methoxynaphthalen-2-yl)-N-((2-methoxyphenyl)carbamothioyl)propanamide] | > 200 | > 200 | > 200 | 7.30 ± 0.60 | 6.97 ± 0.67 | 6.67 ± 0.80 | 6.50 ± 0.80 | 6.97 ± 0.12 | 6.73 ± 0.15 | 6.27 ± 0.23 | 6.07 ± 0.15 | 7.33 ± 0.06 | 6.93 ± 0.12 | 6.63 ± 0.15 | 6.17 ± 0.31 | 22.4 | 28.8 | 31.5 | 26.7 | 22.4 | inhibition in vivo at 5 mg/kg ([1]; 5.0 mg/kg, 2 h): 24.2%; inhibition in vivo at 5 mg/kg ([1]; 5.0 mg/kg, 3 h): 35.1%; inhibition in vivo at 5 mg/kg ([1]; 5.0 mg/kg, 4 h): 33.3%; inhibition in vivo at 10 mg/kg ([1]; 10.0 mg/kg, 1 h): 10.2%; inhibition in vivo at 10 mg/kg ([1]; 10.0 mg/kg, 2 h): 18.2%; inhibition in vivo at 10 mg/kg ([1]; 10.0 mg/kg, 3 h): 18.9%; inhibition in vivo at 10 mg/kg ([1]; 10.0 mg/kg, 4 h): 31.1%; IC50 (HeLa; 24 h): > 200 µM; IC50 (HeLa; 48 h): > 200 µM; IC50 (HeLa; 72 h): > 200 µM
2 | COc1ccc2cc([C@H](C)C(=O)NC(=S)Nc3ccccc3F)ccc2c1 [Compound 12, (S)-N-((2-fluorophenyl)carbamothioyl)-2-(6-methoxynaphthalen-2-yl)propanamide] | > 200 | 159 ± 17.5 | 68.8 ± 9.5 | 6.83 ± 0.38 | 6.43 ± 0.40 | 6.00 ± 0.30 | 5.53 ± 0.06 | 6.07 ± 0.64 | 5.83 ± 0.49 | 5.57 ± 0.38 | 5.03 ± 0.12 | 6.33 ± 0.21 | 6.03 ± 0.06 | 5.60 ± 0.10 | 5.17 ± 0.21 | 8.84 | 16.7 | 24.3 | 37.8 | 18.4 | Cytotoxic effect against the HCT 116 cell line (in words) (HCT 116): moderate cytotoxic effects; inhibition in vivo at 5 mg/kg ([1]; 5.0 mg/kg, 2 h): 19.7%; inhibition in vivo at 5 mg/kg ([1]; 5.0 mg/kg, 3 h): 18.9%; inhibition in vivo at 5 mg/kg ([1]; 5.0 mg/kg, 4 h): 35.6%; inhibition in vivo at 10 mg/kg ([1]; 10.0 mg/kg, 1 h): 19.7%; inhibition in vivo at 10 mg/kg ([1]; 10.0 mg/kg, 2 h): 24.2%; inhibition in vivo at 10 mg/kg ([1]; 10.0 mg/kg, 3 h): 33.3%; inhibition in vivo at 10 mg/kg ([1]; 10.0 mg/kg, 4 h): 46.7%; Cytotoxic effect against HeLa cells (in words) (HeLa): moderate cytotoxic effect; IC50 (HeLa; 24 h): 135 ± 16.8 µM; IC50 (HeLa; 48 h): 103 ± 9.5 µM; IC50 (HeLa; 72 h): 72.8 ± 6.9 µM
3 | COC(=O)[C@H](Cc1ccccc1)NC(=S)NC(=O)[C@@H](C)c1ccc2cc(OC)ccc2c1 [Compound 13, Methyl (((S)-2-(6-methoxynaphthalen-2-yl)propanoyl)carbamothioyl)phenylalaninate] | > 200 | > 200 | 99.6 ± 4.9 | 7.0 ± 0.10 | 6.60 ± 0.10 | 6.13 ± 0.12 | 5.83 ± 0.06 | 6.90 ± 0.10 | 6.43 ± 0.32 | 5.90 ± 0.36 | 5.47 ± 0.23 | 6.77 ± 0.42 | 6.40 ± 0.36 | 6.10 ± 0.36 | 5.80 ± 0.30 | 6.12 | 13.6 | 22.5 | 24.4 | -0.68 | inhibition in vivo at 5 mg/kg ([1]; 5.0 mg/kg, 2 h): 9.09%; inhibition in vivo at 5 mg/kg ([1]; 5.0 mg/kg, 3 h): 20.7%; inhibition in vivo at 5 mg/kg ([1]; 5.0 mg/kg, 4 h): 31.1%; inhibition in vivo at 10 mg/kg ([1]; 10.0 mg/kg, 1 h): 19.7%; inhibition in vivo at 10 mg/kg ([1]; 10.0 mg/kg, 2 h): 27.3%; inhibition in vivo at 10 mg/kg ([1]; 10.0 mg/kg, 3 h): 29.7%; inhibition in vivo at 10 mg/kg ([1]; 10.0 mg/kg, 4 h): 33.3%; IC50 (HeLa; 24 h): > 200 µM; IC50 (HeLa; 48 h): > 200 µM; IC50 (HeLa; 72 h): > 200 µM
